Values of other authors, collected in patent US7879804B2, “Blood pressure lowering peptides in a single enzymatic step” (DSM IP Assets B.V., priority 2004, dated 2011).

Experiments:
ACE = ACE (Homo sapiens, UniProt P12821); conditions: for ACE inhibiting activities: in vitro, as reported in the literature
[1] = tested on: spontaneously hypertensive rats; conditions: Nakamura et al. 1995

ACE, sequence (P12821 30-1306, species assumed): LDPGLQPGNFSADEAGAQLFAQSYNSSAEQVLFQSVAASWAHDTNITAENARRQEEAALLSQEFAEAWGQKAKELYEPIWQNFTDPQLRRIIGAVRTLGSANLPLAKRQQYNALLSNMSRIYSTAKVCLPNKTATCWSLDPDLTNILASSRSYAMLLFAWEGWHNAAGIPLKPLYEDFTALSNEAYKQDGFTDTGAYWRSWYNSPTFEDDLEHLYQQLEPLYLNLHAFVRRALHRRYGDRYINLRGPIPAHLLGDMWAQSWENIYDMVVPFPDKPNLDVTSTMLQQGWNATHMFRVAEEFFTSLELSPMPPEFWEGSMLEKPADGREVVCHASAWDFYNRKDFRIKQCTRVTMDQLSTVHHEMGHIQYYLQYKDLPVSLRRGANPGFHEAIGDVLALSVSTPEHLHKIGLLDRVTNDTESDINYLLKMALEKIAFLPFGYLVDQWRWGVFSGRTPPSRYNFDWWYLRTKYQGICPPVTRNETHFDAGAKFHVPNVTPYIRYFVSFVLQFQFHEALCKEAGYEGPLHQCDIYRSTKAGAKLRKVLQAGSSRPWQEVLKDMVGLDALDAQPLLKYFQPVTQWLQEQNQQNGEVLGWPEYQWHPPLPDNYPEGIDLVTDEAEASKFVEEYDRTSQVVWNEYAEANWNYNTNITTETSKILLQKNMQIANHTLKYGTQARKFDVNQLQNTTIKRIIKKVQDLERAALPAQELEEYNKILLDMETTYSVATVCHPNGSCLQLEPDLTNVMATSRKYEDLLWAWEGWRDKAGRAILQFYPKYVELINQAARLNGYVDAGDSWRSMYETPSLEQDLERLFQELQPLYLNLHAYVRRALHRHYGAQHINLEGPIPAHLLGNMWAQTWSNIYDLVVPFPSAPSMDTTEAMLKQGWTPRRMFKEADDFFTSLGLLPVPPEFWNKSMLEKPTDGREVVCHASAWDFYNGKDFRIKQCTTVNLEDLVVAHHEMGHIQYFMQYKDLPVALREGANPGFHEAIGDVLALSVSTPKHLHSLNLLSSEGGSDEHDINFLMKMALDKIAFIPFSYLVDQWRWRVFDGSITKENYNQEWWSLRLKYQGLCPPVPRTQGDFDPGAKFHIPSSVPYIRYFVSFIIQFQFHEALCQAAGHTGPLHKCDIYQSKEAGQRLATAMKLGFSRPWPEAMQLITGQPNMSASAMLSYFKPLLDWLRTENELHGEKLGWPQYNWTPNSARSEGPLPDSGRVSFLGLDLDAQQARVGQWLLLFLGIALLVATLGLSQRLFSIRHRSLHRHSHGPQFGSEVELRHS

Row | Substance | ACE inhibiting activities (ACE) | antihypertensive effects [1] | IC50 (ACE; ACE inhibition, reported by EP 0 583 074)
1 | Ile-Pro-Pro [IPP] | Strong | confirmed | –
2 | Leu-Pro-Pro [LPP] | Strong | – | –
3 | Val-Pro-Pro [VPP] | Strong | confirmed | 9 µM
